In the NIST ThermoML archive (doi:10.1016/j.fluid.2005.11.026):
“And” between values parts separate entries of the source, which are not always exact repeats. Identical values can stand only once. Numbers after ± are expanded uncertainties.

Conditions: 313.15 K; Liquid; Closed cell (Static) method

SMILES | vapor or sublimation pressure
C1CCCCC1 [cyclohexane] | 24.62 ± 0.096 kPa
Cc1ccccc1 [toluene] | 7.881 ± 0.041 kPa and 7.888 ± 0.041 kPa and 7.889 ± 0.041 kPa
